Molecules are shown by their SMILES. A value given as a limit tells only on which side of the number the result lay.

Experiment [1] relates to panel of cultured cell lines (HuTu-80, HepG2, KB-3-1, A549, RAW264.7, hFF3). Kind of experiment: MTT cytotoxicity, range over the panel of tested cell lines. Type of experiment: cell-based. To be noted: 24 h, summary of Table 1 (for 2–10 partly from ref [21]). The text has this:
(§1) According to our previous data and data published by other research groups, chemical transformations of bile acids can greatly improve their antitumor potential. Thus, as the first step of evaluation of the biological activities of our novel DCA derivatives we assessed their effects on tumor cell viability. The cytotoxicity of the compounds was investigated with respect to a panel of cultured cell lines, including human duodenal HuTu-80, hepatocellular HepG2, cervical KB-3-1 and lung A549 carcinomas as well as murine macrophage RAW264.7 and non-transformed human fibroblasts hFF3 by MTT assay.
Cells were seeded in triplicate in 96-well plates at a density of 5 × 10^3 (HuTu-80, HepG2, KB-3-1, hFF3), 10^4 (A549) or 5 × 10^4 (RAW264.7) cells per well. Cells were incubated under standard conditions for 24 h and then they were treated with varying doses of investigated derivatives for subsequent 24 h. Then 10 µL of MTT solution (5 mg/mL) were added to each wells and cells were incubated for an additional 2 h under standard conditions. The crystals of formazan forming within live cells were solubilized with DMSO and the absorbance was measured in a Multiscan RC plate reader (Thermo LabSystems, Helsinki, Finland) at a test and reference wavelengths of 570 nm and 620 nm, respectively. […]

The subject of a further experiment is HuTu-80 cells. Kind of experiment: Annexin V FITC/PI apoptosis detection. To be noted: 8 µM; for late apoptotic cells (Annexin V FITC+/PI+): control 1.5%; for early apoptotic cells (Annexin V FITC+/PI-): control 2.9%. It is filed as cell-based, human. On the procedure:
In the first step of the mechanistic study, the effect of compound 9 on phosphatidylserine (PS) externalization, a marker of the early phase of apoptosis, was analyzed by double staining of compound 9-treated HuTu-80 cells by annexin V FITC and propidium iodide (PI). Live cells are characterized by lipid membrane asymmetry—PS is mainly present in the inner leaflet of the plasma membrane, whereas phosphatidylcholine and sphingomielin are restricted to the outer leaflet. During apoptosis the activity of enzymes involved in membrane lipid scrambling […] and PS is exposed on cell surface. Annexin V is a protein that has a high affinity for PS and its conjugates with fluorophores can be used to estimate the level of PS externalization in vitro. Usage of PI gives in turn an opportunity to identify late apoptotic and necrotic cells displaying increased membrane permeability.
HuTu-80 cells were seeded in 6-well plates at a density of 5 × 10^5 cells per well and incubated for 24 h under standard conditions. Then the medium was replaced with fresh medium containing compound 9 at 8 µM. In order to determine induction of apoptosis, cells were harvested at 6, 18 and 24 h post treatment. Cells were detached with trypsin, washed with cold PBS and then resuspended gently in binding buffer at concentration of 10^6 cells/mL. Thereafter, cells were stained with fluorescein isothiocyanate (FITC)-conjugated Annexin V and PI (Annexin V-FITC Apoptosis Detection Kit, Millipore, Bedford, MA, USA) for 15 min in the dark and subsequently analyzed using NovoCyte Flow Cytometer (ACEA Biosciences Inc., San Diego, CA, USA). For each sample, 10.000 events were acquired.

The next experiment relates to RAW264.7 macrophages. The experiment in a line: MTT cytotoxicity assay, RAW264.7. Type of experiment: cell-based, murine.
Excerpt: as §1
Human duodenal carcinoma HuTu-80 cells, human hepatocellular carcinoma HepG2 cells, human cervical carcinoma KB-3-1 cells, human lung carcinoma A549 cells were obtained from the Russian Cell Culture Collection (Institute of Cytology, RAS, St. Petersburg, Russia). Non-transformed human fibroblasts hFF3 were kindly provided by Dr. Olga Koval (Institute of Chemical Biology and Fundamental Medicine, SB RAS, Novosibirsk, Russia). RAW264.7 macrophages were kindly provided by Prof. Dr. Dmitry Kuprash (Engelhardt Institute of Molecular Biology, RAS, Moscow, Russia). The cells were cultured in DMEM (Sigma-Aldrich Inc., St. Louis, MO, USA) supplemented with 10% (v/v) heat-inactivated fetal bovine serum (FBS) (BioloT, St. Petersburg, Russia), 100 U/mL penicillin (ICN Biomedicals Inc., Costa Mesa, CA, USA), 100 µg/mL streptomycin and 0.25 µg/mL amphotericin; additionally, in the case of RAW264.7 cells, concentration of glucose in the medium was increased up to 4.5 mg/mL. The cells were incubated at 37 °C in 5% CO2 and 95% air (hereafter referred to as standard conditions). DCA derivatives were dissolved in DMSO to yield stock solutions of 10 mmol/L and stored at −20 °C prior to use.
Cells were seeded in triplicate in 96-well plates at a density of 5 × 10^3 (HuTu-80, HepG2, KB-3-1, hFF3), 10^4 (A549) or 5 × 10^4 (RAW264.7) cells per well. Cells were incubated under standard conditions for 24 h and then they were treated with varying doses of investigated derivatives for subsequent 24 h. Then 10 µL of MTT solution (5 mg/mL) were added to each wells and cells were incubated for an additional 2 h under standard conditions. The crystals of formazan forming within live cells were solubilized with DMSO and the absorbance was measured in a Multiscan RC plate reader (Thermo LabSystems, Helsinki, Finland) at a test and reference wavelengths of 570 nm and 620 nm, respectively. […] To perform SAR analysis, hierarchical clustering of compounds based on their IC50 values was fulfilled with Euclidean distance by using the Morpheus tool (https://software.broadinstitute.org/morpheus/), a platform designed for visualization and analysis of data in a matrix format. Heatmap, containing compounds’ SI values, were constructed by using the Excel 2010 software (Microsoft, Redmond, WA, USA). In order to reveal whether ROS participate in the induction of cell death by compound 9, HuTu-80 cells cultured in 96-well plate were pretreated by NAC at 2 mM for 1 h. Thereafter, the medium was replaced by fresh medium with compound 9 at 8 µM and the cells were incubated with subsequent 24 h under standard conditions. After this time period, the curves of cytotoxicity of compound 9 in the presence or absence of NAC were compared.

Experiment [2] deals with NO synthesis by IFNγ-activated RAW264.7 cells. The experiment in a line: Inhibition of NO production by stimulated macrophages (Griess). To be noted: Mus musculus, RAW264.7, 24 h, read-out: IC50NO. It is filed as cell-based, murine. The method, then:
RAW264.7 cells were seeded in triplicate in 96-well plates at a density of 5 × 10^4 cells/well and incubated under standard conditions for 24 h. The cells were treated with 20 ng/mL of murine recombinant IFNγ (GIBCO, Gaithersburg, MD, USA), with or without (control) compounds at various concentrations for 24 h. The level of NO production was evaluated by determining the nitrite concentration in culture medium with a Griess Reagent System (Promega, Madison, WI, USA). The IC50^NO value was calculated as the derivative concentration required to decrease NO production to 50% of the non-treated control.
On the technique in general: Nitrite, measured by Griess reagent, commonly stands in for NO production.

For the compound `COC(=O)CC[C@@H](C)[C@H]1CC[C@H]2[C@@H]3CC[C@@H]4CC(O)(CNCCCO)CC[C@]4(C)[C@H]3CC(=O)[C@]12C` (stereo partly drawn) [Compound 9, Methyl 3-hydroxy-3-((3-hydroxypropylamino)methyl)-12-oxo-5β-cholan-24-oate], the IC50 is 4 to 33.3 µM in experiment [1]; 19.3 ± 3.7 µM in the experiment with RAW264.7 macrophages (Mus musculus, RAW264.7, MTT, 24 h, read-out: IC50 RAW264.7 (macrophage)); over 10 µM in experiment [2]. For the same compound, the “late apoptotic cells (Annexin V FITC+/PI+)” value was determined as 4.9% with HuTu-80 cells (18 h) and 10.6% in the experiment on HuTu-80 cells (24 h). For the same compound, the figures for the “early apoptotic cells (Annexin V FITC+/PI-)” value in the experiment with HuTu-80 cells (18 h) and in the experiment on HuTu-80 cells (24 h) were 23.5% and 36.1%, respectively. The “necrotic cells (Annexin V FITC-/PI+)” value in the experiment on HuTu-80 cells (all time points (6, 18, 24 h)) was at most 1.1%. In addition, the “Selectivity index RAW264” value in the experiment with RAW264.7 macrophages (ratio IC50 hFF3 / IC50 RAW264.7) turned out to be 1.7.

(Values after publication PMC6681416, “Novel Derivatives of Deoxycholic Acid Bearing Linear Aliphatic Diamine and Aminoalcohol Moieties and their Cyclic Analogs at the C3 Position: Synthesis and Evaluation of Their In Vitro Antitumor Potential” (Molecules, 2019).)
